In ChEMBL document CHEMBL3763135, “Synthesis and evaluation of thiophene-based guanylhydrazones (iminoguanidines) efficient against panel of voriconazole-resistant fungal isolates” (Bioorg Med Chem, 2016):
Activity calls are given as the source filed them. No cut-off for these calls is given here.

Key:
Danio rerio [1] = species: Danio rerio; experiment: Toxicity against zebrafish embryo assessed as effect on heart beat at 10 ug/ml measured at 96 hrs post fertilization by inverted microscopic analysis; type: organism-based; conditions: in vivo
Danio rerio [2] = species: Danio rerio; experiment: Toxicity against zebrafish embryo assessed as effect on eyes at 5 ug/ml measured at 96 hrs post fertilization by inverted microscopic analysis; type: organism-based; conditions: in vivo
[3] = test system: Trichophyton mentagrophytes; experiment: Antifungal activity against Trichophyton mentagrophytes DMT4 by broth dilution method; type: functional
Candida albicans [4] = experiment: Antifungal activity against Candida albicans CA5 by broth dilution method; type: functional
Candida albicans [5] = experiment: Antifungal activity against Candida albicans CA5 assessed as fungal growth at sub-MIC measured after 24 hrs by time-kill dependence-based spectrophotometric analysis relative to DMSO control; type: functional, organism-based
Danio rerio [6] = species: Danio rerio; experiment: Toxicity against zebrafish embryo assessed as effect on eyes at 10 ug/ml measured at 96 hrs post fertilization by inverted microscopic analysis; type: organism-based; conditions: in vivo
Danio rerio [7] = experiment: Toxicity against zebrafish embryo assessed as pericardial edema at 2.5 ug/ml measured at 96 hrs post fertilization by inverted microscopic analysis; type: organism-based; conditions: in vivo
Danio rerio [8] = experiment: Toxicity against zebrafish embryo assessed as yolk edema at 5 ug/ml measured at 96 hrs post fertilization by inverted microscopic analysis; type: organism-based; conditions: in vivo
Danio rerio [9] = species: Danio rerio; experiment: Toxicity against zebrafish embryo assessed as effect on blood circulation at 2.5 ug/ml measured at 96 hrs post fertilization by inverted microscopic analysis; type: organism-based; conditions: in vivo
Danio rerio [10] = species: Danio rerio; experiment: Toxicity against zebrafish embryo assessed as effect on heart beat at 5 ug/ml measured at 96 hrs post fertilization by inverted microscopic analysis; type: organism-based; conditions: in vivo
Danio rerio [11] = species: Danio rerio; experiment: Toxicity against zebrafish embryo assessed as head malformation at 10 ug/ml measured at 96 hrs post fertilization by inverted microscopic analysis; type: organism-based; conditions: in vivo
Danio rerio [12] = species: Danio rerio; experiment: Toxicity against zebrafish embryo assessed as teratogenic embryos at 2.5 ug/ml measured at 96 hrs post fertilization by inverted microscopic analysis; type: organism-based; conditions: in vivo
Danio rerio [13] = species: Danio rerio; experiment: Toxicity against zebrafish embryo assessed as teratogenic embryos at 50 ug/ml measured at 96 hrs post fertilization by inverted microscopic analysis; type: organism-based; conditions: in vivo
Candida albicans [14] = experiment: Antibiofilm activity against Candida albicans assessed as inhibition of Spider medium-induced hyphae formation at sub-MIC after 24 hrs by propidium iodide and FITC-conjugated concanavaline A staining based fluorescence microscopy; type: functional, organism-based
Danio rerio [15] = species: Danio rerio; experiment: Toxicity against zebrafish embryo assessed as skeletal deformities at 2.5 ug/ml measured at 96 hrs post fertilization by inverted microscopic analysis; type: organism-based; conditions: in vivo
Pichia kudriavzevii [16] = experiment: Antibiofilm activity against Pichia kudriavzevii ATCC 34135 assessed as disruption of preformed biofilm after 24 hrs by concanavalin A-FITC-staining based fluorescence microscopic analysis; type: functional
Danio rerio [17] = species: Danio rerio; experiment: Toxicity against zebrafish embryo assessed as effect on blood circulation at 10 ug/ml measured at 96 hrs post fertilization by inverted microscopic analysis; type: organism-based; conditions: in vivo
Danio rerio [18] = species: Danio rerio; experiment: Toxicity against zebrafish embryo assessed as normal embryos at 25 ug/ml measured at 96 hrs post fertilization by inverted microscopic analysis; type: organism-based; conditions: in vivo
Danio rerio [19] = species: Danio rerio; experiment: Toxicity against zebrafish embryo assessed as effect on eyes at 2.5 ug/ml measured at 96 hrs post fertilization by inverted microscopic analysis; type: organism-based; conditions: in vivo
Danio rerio [20] = species: Danio rerio; experiment: Toxicity against zebrafish embryo assessed as effect on notochord at 10 ug/ml measured at 96 hrs post fertilization by inverted microscopic analysis; type: organism-based; conditions: in vivo
Danio rerio [21] = species: Danio rerio; experiment: Toxicity against zebrafish embryo assessed as effect on notochord at 5 ug/ml measured at 96 hrs post fertilization by inverted microscopic analysis; type: organism-based; conditions: in vivo
Danio rerio [22] = species: Danio rerio; experiment: Toxicity against zebrafish embryo assessed as teratogenic embryos at 25 ug/ml measured at 96 hrs post fertilization by inverted microscopic analysis; type: organism-based; conditions: in vivo
Fusarium oxysporum = experiment: Antifungal activity against Fusarium oxysporum AB18 by broth dilution method; type: functional
Danio rerio [23] = species: Danio rerio; experiment: Toxicity against zebrafish embryo assessed as growth retardation at 10 ug/ml measured at 96 hrs post fertilization by inverted microscopic analysis; type: organism-based; conditions: in vivo
[24] = Toxicity against zebrafish embryo assessed as dead embryos at 2.5 ug/ml measured at 96 hrs post fertilization by inverted microscopic analysis; type: organism-based, Danio rerio; conditions: read-out: Activity
Candida albicans [25] = experiment: Antifungal activity against Candida albicans ATCC 10231 by broth dilution method; type: functional
Pichia kudriavzevii [26] = experiment: Antifungal activity against Candida krusei ATCC 34135 by broth dilution method; type: functional
Danio rerio [27] = species: Danio rerio; experiment: Toxicity against zebrafish embryo assessed as effect on otoliths at 2.5 ug/ml measured at 96 hrs post fertilization by inverted microscopic analysis; type: organism-based; conditions: in vivo
[28] = Toxicity against zebrafish embryo assessed as dead embryos at 50 ug/ml measured at 96 hrs post fertilization by inverted microscopic analysis; type: organism-based, Danio rerio; conditions: read-out: Activity
[29] = Induction of membrane damage in PC/PS/E liposome assessed as calcein release at MIC after 30 mins by fluorescence-based liposome leakage assay; type: functional
Danio rerio [30] = species: Danio rerio; experiment: Toxicity against zebrafish embryo assessed as normal embryos at 10 ug/ml measured at 96 hrs post fertilization by inverted microscopic analysis; type: organism-based; conditions: in vivo
Danio rerio [31] = experiment: Toxicity against zebrafish embryo assessed as pericardial edema at 5 ug/ml measured at 96 hrs post fertilization by inverted microscopic analysis; type: organism-based; conditions: in vivo
Danio rerio [32] = experiment: Toxicity against zebrafish embryo assessed as yolk edema at 2.5 ug/ml measured at 96 hrs post fertilization by inverted microscopic analysis; type: organism-based; conditions: in vivo
[33] = Toxicity against zebrafish embryo assessed as dead embryos at 10 ug/ml measured at 96 hrs post fertilization by inverted microscopic analysis; type: organism-based, Danio rerio; conditions: read-out: Activity
Candida albicans [34] = experiment: Induction of DNA intercalation with Candida albicans genomic DNA at 25 ug/ml after 12 hrs by ethidium bromide staining based gel electrophoresis method
[35] = Toxicity against zebrafish embryo assessed as dead embryos at 5 ug/ml measured at 96 hrs post fertilization by inverted microscopic analysis; type: organism-based, Danio rerio; conditions: read-out: Activity
[36] = Toxicity against zebrafish embryo assessed as dead embryos at 25 ug/ml measured at 96 hrs post fertilization by inverted microscopic analysis; type: organism-based, Danio rerio; conditions: read-out: Activity
Danio rerio [37] = species: Danio rerio; experiment: Toxicity against zebrafish embryo assessed as normal embryos at 50 ug/ml measured at 96 hrs post fertilization by inverted microscopic analysis; type: organism-based; conditions: in vivo
Danio rerio [38] = species: Danio rerio; experiment: Toxicity against zebrafish embryo assessed as skeletal deformities at 10 ug/ml measured at 96 hrs post fertilization by inverted microscopic analysis; type: organism-based; conditions: in vivo
Danio rerio [39] = species: Danio rerio; experiment: Toxicity against zebrafish embryo assessed as skeletal deformities at 5 ug/ml measured at 96 hrs post fertilization by inverted microscopic analysis; type: organism-based; conditions: in vivo
Danio rerio [40] = species: Danio rerio; experiment: Toxicity against zebrafish embryo assessed as unhatched embryos at 5 ug/ml measured at 96 hrs post fertilization by inverted microscopic analysis; type: organism-based; conditions: in vivo
MRC5 = experiment: Cytotoxicity against human MRC5 cells after 48 hrs by MTT assay; type: cell-based; conditions: MRC5, 48 h
Danio rerio [41] = species: Danio rerio; experiment: Toxicity against zebrafish embryo assessed as effect on tail tip at 10 ug/ml measured at 96 hrs post fertilization by inverted microscopic analysis; type: organism-based; conditions: in vivo
Danio rerio [42] = species: Danio rerio; experiment: Toxicity against zebrafish embryo assessed as normal embryos at 5 ug/ml measured at 96 hrs post fertilization by inverted microscopic analysis; type: organism-based; conditions: in vivo
[43] = Toxicity against zebrafish embryo measured at 96 hrs post fertilization by inverted microscopic analysis; type: organism-based, Danio rerio; conditions: zebrafish embryos
Danio rerio [44] = species: Danio rerio; experiment: Toxicity against zebrafish embryo assessed as effect on tail tip at 5 ug/ml measured at 96 hrs post fertilization by inverted microscopic analysis; type: organism-based; conditions: in vivo
Aspergillus fumigatus = experiment: Antifungal activity against Aspergillus fumigatus ATCC 13073 by broth dilution method; type: functional

## Cc1ccc(-c2ccc(/C=N/NC(=N)N)s2)cc1.Cl
Danio rerio [1]
  Activity: 0%
Danio rerio [2]
  Activity: 0%
[3]
  MIC: 1.56 µg/mL
Candida albicans [4]
  MIC: 0.5 µg/mL
Candida albicans [5]
  Activity: inactive
Danio rerio [6]
  Activity: 100%
Danio rerio [7]
  Activity: 7.41%
Danio rerio [8]
  Activity: 0%
Danio rerio [9]
  Activity: 0%
Danio rerio [10]
  Activity: 0%
Danio rerio [11]
  Activity: 100%
Danio rerio [12]
  Activity: 6.67%
Danio rerio [13]
  Activity: 0%
Candida albicans [14]
  Activity: Active
Danio rerio [15]
  Activity: 0%
Pichia kudriavzevii [16]
  MBEC: 250 µg/mL
Danio rerio [17]
  Activity: 0%
Danio rerio [18]
  Activity: 0%
Danio rerio [19]
  Activity: 0%
Danio rerio [20]
  Activity: 0%
Danio rerio [21]
  Activity: 0%
Danio rerio [22]
  Activity: 0%
Fusarium oxysporum
  MIC: 7.8 µg/mL
Danio rerio [23]
  Activity: 100%
[24]
  mortality at 96 h, 2.5 ug/ml: 10%
Candida albicans [25]
  MIC: 0.9 µg/mL
Pichia kudriavzevii [26]
  MIC: 3.12 µg/mL
Danio rerio [27]
  Activity: 0%
[28]
  mortality at 96 h, 50 ug/ml: 100%
[29]
  Activity: 7%
Danio rerio [30]
  Activity: 0%
Danio rerio [31]
  Activity: 100%
Danio rerio [32]
  Activity: 0%
[33]
  mortality at 96 h, 10 ug/ml: 50%
Candida albicans [34]
  Activity: Active
[35]
  mortality at 96 h, 5 ug/ml: 20%
[36]
  mortality at 96 h, 25 ug/ml: 100%
Danio rerio [37]
  Activity: 0%
Danio rerio [38]
  Activity: 6.67%
Danio rerio [39]
  Activity: 0%
Danio rerio [40]
  Activity: 0%
MRC5
  IC50: 2.5 µg/mL
Danio rerio [41]
  Activity: 0%
Danio rerio [42]
  Activity: 0%
[43]
  LC50 at 96 h: 8.2 µg/mL
Danio rerio [44]
  Activity: 0%
Aspergillus fumigatus
  MIC: 6.25 µg/mL
